Data from patent US20240245633A1, “ROR Gamma Agonists as Enhancers of Protective Immunity” (University of Florida Research Foundation, Incorporated, priority 2015, published 2024).
Marks after values point to notes of the source that are not given here.

Target: T1, RORγt LBD pretreated with ursolic acid (Homo sapiens, UniProt P51449)
T1 construct: 5 μL of a 10 μM RORγt LBD solution (Apo or in complex with 10-excess compound)
T1 sequence (P51449 269-508 limits assumed): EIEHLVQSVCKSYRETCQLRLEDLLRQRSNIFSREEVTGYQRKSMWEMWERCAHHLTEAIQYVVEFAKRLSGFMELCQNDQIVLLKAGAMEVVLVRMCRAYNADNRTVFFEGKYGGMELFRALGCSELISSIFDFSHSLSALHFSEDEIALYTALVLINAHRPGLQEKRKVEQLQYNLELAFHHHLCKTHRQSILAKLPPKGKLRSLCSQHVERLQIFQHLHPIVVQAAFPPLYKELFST
Test: Differential HDX-MS of RORγt pretreated with ursolic acid ± compound
Type: binding
From the text: While the mechanism of action of RORγt agonists on regulation of the immune checkpoint receptor PD-1 is unclear, a correlation between RORγt and PD-1 expression has been observed in PD-1 knockout mice Z Regardless, to gain insights into the structural mechanism for agonist activity we examined the impact of putative agonist ligands on the conformational dynamics of RORγt. To achieve this, we utilized differential hydrogen/deuterium exchange (HDX) mass spectrometry.
HDX-MS. Solution-phase amide HDX was performed with a fully automated system as described previously with minor modifications^30,31. For differential HDX experiments, 5 μL of a 10 μM RORγt LBD solution (Apo or in complex with 10-excess compound) was diluted to 25 μL with D20-containing HDX buffer, and incubated at 4° C. for; 10 s, 30s, 60s, 900s, and 3,600s, Following on-exchange, unwanted forward or back exchange is minimized and the protein is denatured by dilution to 50 μL with 0.1% TFA in 3M urea (held at 4° C., pH 2.5). Samples are then passed across an immobilized pepsin column (prepared in house) at 50 μL min−1 (0.1% TFA, 15° C.) and the resulting peptides are trapped onto a Ce trap cartridge (Thermo Fisher, Hypersil Gold). Peptides were then gradient eluted (4% CH3CN to 40% CH3CN, 0,3% formic acid over 5 minutes, 4° C.) across a 1 mm×50 mm Cia HPLC column (Hypersil Gold, Thermo Fisher) and electrosprayed directly into a high resolution orbitrap mass spectrometer (Exactive, Thermo Fisher). Percent deuterium exchange values for peptide isotopic envelopes at each time point were calculated and processed using HDX Workbench^32 and overlaid onto RORγt crystal structures using pyMOL (DeLano Scientific). HDX data is presented as an average of three individual replicates across […] time points (10s, 60s, 300s, 900s, and 3600s).

## CC(C)=CCC[C@@H](C)[C@H]1CC[C@H]2[C@@H]3CC=C4C[C@@H](O)CC[C@]4(C)[C@H]3CC[C@]12C [desmosterol]
RORγt exposed to ursolic acid, then compound
  protection to solvent exchange in H12: not observed
UA pretreated, 268-275, charge 2, H1
  Differential HDX kinetics, peptide TEIEHLVQ: −1(4)*
UA pretreated, 268-278, charge 2, H1
  Differential HDX kinetics, peptide TEIEHLVQSVC: −2(4)*
UA pretreated, 268-280, charge 3, H1
  Differential HDX kinetics, peptide TEIEHLVQSVCKS: 2(2)*
UA pretreated, 268-286, charge 3, H1
  Differential HDX kinetics, peptide TEIEHLVQSVCKSYRETCQ: −1(3)*
UA pretreated, 268-286, charge 4, H1
  Differential HDX kinetics, peptide TEIEHLVQSVCKSYRETCQ: 0(3)*
UA pretreated, 288-292, charge 1, H2
  Differential HDX kinetics, peptide RLEDL: 10(2)*
UA pretreated, 288-293, charge 1, H2
  Differential HDX kinetics, peptide RLEDLL: 10(2)*
UA pretreated, 304-316, charge 2, H3/H4
  Differential HDX kinetics, peptide EVTGYQRKSMWEM: −6(3)*
UA pretreated, 317-329, charge 3, H4
  Differential HDX kinetics, peptide WERCAHHLTEAIQ: −1(1)*
UA pretreated, 317-330, charge 3, H4
  Differential HDX kinetics, peptide WERCAHHTEAIQY: 0(1)*
UA pretreated, 331-341, charge 2, H4/H5
  Differential HDX kinetics, peptide WEGAKRLSGF: −1(2)*
UA pretreated, 334-341, charge 2, H4/H5
  Differential HDX kinetics, peptide FAKRLSGF: 0(2)*
UA pretreated, 345-352, charge 1, H5/H6
  Differential HDX kinetics, peptide CQNDQM: 0(1)*
UA pretreated, 368-377, charge 2, B1
  Differential HDX kinetics, peptide CRAYNADNRTVF: 0(2)*
UA pretreated, 369-377, charge 2, B1
  Differential HDX kinetics, peptide YNADNRTVF: −1(3)*
UA pretreated, 378-387, charge 2, B2/H7
  Differential HDX kinetics, peptide FEGKYGGMEL: −1(3)*
UA pretreated, 388-395, charge 2, H7/H8
  Differential HDX kinetics, peptide FRALGCSEL: −1(2)*
UA pretreated, 396-410, charge 2, H8
  Differential HDX kinetics, peptide LISSIFDFSHSLSAL: 0(2)*
UA pretreated, 397-407, charge 1, H8
  Differential HDX kinetics, peptide ISSIFD: −3(2)*
UA pretreated, 397-410, charge 2, H8
  Differential HDX kinetics, peptide ISSIFDFSHSLSAL: 0(2)*
UA pretreated, 400-410, charge 2, H8
  Differential HDX kinetics, peptide IFDFSHSLSAL: 4(3)*
UA pretreated, 402-410, charge 2, H8
  Differential HDX kinetics, peptide DFSHSKSAL: 3(2)*
UA pretreated, 403-410, charge 2, H8
  Differential HDX kinetics, peptide FSHSLSAL: 0(3)*
UA pretreated, 454-478, charge 3, H11
  Differential HDX kinetics, peptide AXLPPXGKLRSLCSQ: −1(4)*
UA pretreated, 479-495, charge 2, H11
  Differential HDX kinetics, peptide HVERLQIFQHLHPIWQ: −6(3)*
UA pretreated, 496-505, charge 2, H12
  Differential HDX kinetics, peptide AAFPPLYKEL: −4(2)*
UA pretreated, 496-506, charge 2, H12
  Differential HDX kinetics, peptide AAFPPLYKELF: −3(2)*
UA pretreated, charge 2, H9
  Differential HDX kinetics, peptide HFSEDEIAL: −1(2)*
UA pretreated, charge 2, H11
  Differential HDX kinetics, peptide QIFQHLHPIWQ: −3(3)*
UA pretreated, charge 3, H1
  Differential HDX kinetics, peptide TEIEHLVQSVCKSYRETCQL: −3(4)*
UA pretreated, charge 3, H6/B1
  Differential HDX kinetics, peptide VRMCRAYNADNRTVF: −1(1)*
